Where “and” joins values, the source holds several entries; their conditions need not be identical. Equal values may be shown once.
What was measured:
[1] = tested on: HIV; assay: Reduction of HIV cytopathic effect, CEM-IW protocol; assay type: cell-based; settings: asterisk: CEMIW protocol; for Activity class of Anti-HIV Compounds, CEM-IW: inhibition of viral cytopathic effect; for EC50: CEM cells, drug added before virus, read-out: Activity of Anti-HIV Compounds (EC50), CEM-IW
Protocol: (§1) The compounds of Examples were tested for anti-AIDS activity by subjecting them to standard National Cancer Institute ("NCI") in vitro screening procedures. In carrying out each test, two blanks were run. In the first blank, HIV and a culture of a standard human cell line were incubated together to measure the infectivity of the virus. The viability of the cells was measured after holding for six or seven days. In an "effective" test, most cells were infected before the holding period was complete.
(§2) Finally, the protective effects of the test compounds were measured. Each cell culture and test compound were incubated with the virus and the viability of the cells was measured as a function of compound concentration after holding for six or seven days. If the compound is active in protecting the cells against the virus, there is typically low cell viability until an effective concentration of the test compound is reached. At this point, cell viability increases steadily toward 100% unless the toxic effect of the compound (as measured in the second blank) takes effect. The concentration of the test compound that results in 50% "control," i.e., a 50% reduction of the viral cytopathic effect, is defined as the EC 50. The therapeutic index TI50 is calculated as IC50/EC50.
(§3) Values of test compound concentrations required for between 20 and 50% reduction of the viral cytopathic effect can also be determined. Such compounds are classified as moderately active.
(§4) The compounds were tested to determine their reduction of HIV cytopathic effect on the human cell lines CEM and MT2. Tests were done by innoculating these cell lines either with free HIV (V) or with a virus Previously cultured with host cells (C). Thus, in Table III the designation CEMV means CEM line cells innoculated with free virus and MT2C means MT2 cells innoculated with cultured viral infected MT2 cells. In some cases the compound was also tested on a cell line together with a sub-effective amount of the known HIV viricide AZT. This is done to test possible synergistic effects. Such a test on the CEM line is denoted CEMZ.
The aforementioned identifiers are used when a batch was prepared and samples inserted into the wells. In procedures calling for the addition of the drug (or no drug) and the CEM uninfected cells to each well, followed by the subsequent addition of the HIV virus, the protocol is designated as CEM-IW.
(§5) 4) The tetrazolium salt, XTT, is added to all wells, and cultures are incubated to allow formazan color development by viable cells.
(§6) 5) Individual wells are analyzed spectrophotometrically to quantity formazan production, and in addition are viewed microscopically for detection of viable cells and confirmation of protective activity.
(§7) 6) Drug-treated virus-infected cells are compared with drug-treated non-infected cells and with other appropriate controls (untreated infected and untreated non-infected cells, drug-containing wells without cells, etc.) on the same plate.
Asterisks indicate the CEMIW protocol.

[2] = tested on: HIV; assay: microbe, parasite or virus in culture; assay type: cell-based; settings: CEM cells, free HIV, read-out: Activity of Anti-HIV Compounds (EC50), CEMV
Protocol: as §1
In the second blank, the cell line culture and the compound being tested (but not virus) were incubated together to measure the toxicity of the drug to the cellline. The viability of the cells was measured as a function of concentration of the compound, after holding for seven days. Typically, the cells survive at low compound concentrations, but at some higher concentration, toxicity of the compound is manifested and the cells die. The concentration of the test compound that results in 50% inhibition of cell growth is defined as the IC50.
as §2, §3, §4
1) T4 lymphocytes (CEM cell line) are exposed to HIV at a virus to cell ratio of approximately 0.05 and plated along with non-infected control cells in 96-well microtiter plates.
2) Each candidate agent is dissolved in dimethyl sulfoxide (unless otherwise indicated), then diluted 1:200 in cell culture medium. Further dilutions (five-fold) are prepared before adding to an equal volume of medium containing either infected or noninfected cells.
3) Cultures are incubated at 37° C. in a 5% carbon dioxide atmosphere for seven days (if six days the CEMV test is identified as CEM-6).
as §5, §6, §7
7) A determination of activity is made. […]

[3] = Human immunodeficiency virus 1, CCRF-CEM

EC50 [1, 3]	EC50 [1]	SMILES	further results
		CCOC(=O)c1cc(NC(=S)OC(C)C)ccc1Cl [Compound 148]	Activity class of Anti-HIV Compounds, CEM-IW [1]: MA (moderate activity (MA), that is, inhibition between approximately 20 and 50%)
		CCCCOC(=O)c1cc(NC(=O)C2=C(C)OCCS2)ccc1Cl [Compound 6, Butyl 2-chloro-5-[[(5,6-dihydro-2-methyl-1,4-oxathiin-3-yl)carbonyl]amino]benzoate]	EC50 [2, 3]: 100 nM
71.7 nM	41.7 nM and 36.8 nM and 57.1 nM	CCC(C)OC(=O)c1cc(NC(=S)OC(C)C)ccc1Cl (stereo not drawn) [Compound 152]	
		CCC1=C(C(=O)Nc2ccc(Cl)c(C(=O)OC(C)C)c2)SCCO1 [Compound 7, 1-Methylethyl 2-chloro-5-[[(2-ethyl-5,6-dihydro-1,4-oxathiin-3-yl)carbonyl]amino]benzoate]	EC50 [2]: 700 nM; EC50 [2, 3]: 840 nM
43 nM	37 nM	Cc1occc1C(=S)Nc1ccc(Cl)c(C(=O)OC(C)C)c1 [Compound 59, 1-methylethyl 2-chloro-5-[(2-methyl-3-furanyl)thioxomethyl]amino benzoate]	
240 nM	180 nM and 200 nM	CCCOC(=S)Nc1ccc(Cl)c(C(=O)OC(C)C)c1 [Compound 35]	
660 nM	680 nM and 730 nM	CCOC(=S)Nc1ccc(Cl)c(C(=O)OC(C)C)c1 [Compound 33]	
1040 nM	1380 nM and 1320 nM and 890 nM	CCCCCOC(=S)Nc1ccc(Cl)c(C(=O)OC(C)C)c1 [Compound 36]	
		COC(=O)c1ccccc1S(=O)(=O)NC(=O)Nc1ccc(Cl)c(C(=O)OC(C)C)c1 [Compound 130]	Activity class of Anti-HIV Compounds, CEM-IW [1]: MA (moderate activity (MA), that is, inhibition between approximately 20 and 50%)
		CC(C)OC(=O)c1cc(NC(=O)OC2CCCCC2)ccc1Cl [Compound 102]	Activity class of Anti-HIV Compounds, CEM-IW [1]: MA (moderate activity (MA), that is, inhibition between approximately 20 and 50%)
		CC(C)OC(=O)c1cc(NC(=O)c2c(Br)c(Br)c(Br)c(Br)c2C(=O)O)c(F)cc1Cl [Compound 20, 2,3,4,5-Tetrabromo-6-[[[4-chloro-2-fluoro-5-[(1-methylethoxy)carbonyl]phenyl]amino]carbonyl]benzoic acid]	EC50 [2]: 58700 nM and 69400 nM and 54500 nM; EC50 [2, 3]: 69500 nM
		CC(C)OC(=O)c1cc(NC(=S)OC(C)C)ccc1Cl [Compound 32, 1-Methylethyl 2-chloro-5-[[(1-methylethoxy)thioxomethyl]amino]benzoate]	EC50 [2]: 59 nM and 30 nM; EC50 [2, 3]: 35 nM
390 nM	620 nM and 420 nM and 450 nM	CC(C)OC(=O)c1cc(NC(=S)c2ccccc2)ccc1Cl [Compound 61, Benzoic acid, 2-chloro-5-(phenylthioxomethyl) amino-, 1-methylethyl ester]	
6100 nM	6770 nM and 4490 nM and 3620 nM	CCC(=O)Oc1ccc(NC(=O)C2=C(C)OCCS2)cc1C(=O)OC(C)C [Compound 158]	
		CC1=C(C(=O)Nc2cccc(C(=O)OC(C)C)c2)SCCO1 [Compound 10, 1-Methylethyl 3-[[(5,6-dihydro-2-methyl-1,4-oxathiin-3-yl)carbonyl]amino]benzoate]	EC50 [2]: 2900 nM; EC50 [2, 3]: 3000 nM
		CC(=O)Nc1ccccc1C(=O)Nc1ccc(Cl)c(C(=O)OC(C)C)c1 [Compound 114, 1-Methylethyl 5-[(2-acetamidobenzoyl)amino]-2-chlorobenzoate]	Activity class of Anti-HIV Compounds, CEM-IW [1]: MA (moderate activity (MA), that is, inhibition between approximately 20 and 50%)
2670 nM	2560 nM and 2150 nM and 2880 nM	CC(C)OC(=O)c1cc(NC(=O)c2ccccc2I)ccc1Cl [Compound 82, 1-Methylethyl 2-chloro-5-[(2-iodobenzoyl)amino]benzoate]	
		CCOC(=O)c1ccc(C)c(NC(=O)C2=C(C)OCCS2)c1 [Compound 14, Ethyl 3-[[(5,6-dihydro-2-methyl-1,4-oxathiin-3-yl)carbonyl]amino]-4-methylbenzoate]	EC50 [2]: 5200 nM; EC50 [2, 3]: 7600 nM
		CC(=O)Oc1ccc(NC(=O)C2=C(C)OCCS2)cc1C(=O)OC(C)C [Compound 157]	Activity class of Anti-HIV Compounds, CEM-IW [1]: MA (moderate activity (MA), that is, inhibition between approximately 20 and 50%)

EC50 [1, 3]	EC50 [1]	SMILES	further results
260 nM	373 nM and 243 nM and 422 nM	CCOC(=O)c1cc(NC(=S)OC(C)C)ccc1SC [Compound 145]	
210 nM	230 nM and 296 nM and 329 nM	CCOC(=O)c1cc(NC(=S)OC(C)C)ccc1C [Compound 150]	
		CCCCCOC(=O)c1cc(NC(=O)C2=C(C)OCCS2)ccc1Cl [Compound 15, Pentyl 2-chloro-5-[[(5,6-dihydro-2-methyl-1,4-oxathiin-3-yl)carbonyl]amino]benzoate]	EC50 [2]: 610 nM; EC50 [2, 3]: 820 nM
590 nM	608 nM	CC1=C(C(=O)Nc2ccccc2C(=O)Nc2ccc(Cl)c(C(=O)OC(C)C)c2)SCCO1 [Compound 147]	
		CC(C)OC(=O)c1cc(NC(=O)c2c(Br)c(Br)c(Br)c(Br)c2C(=O)O)ccc1Cl [Compound 21, 2,3,4,5-Tetrabromo-6-[[[4-chloro-3-[(1-methylethoxy)carbonyl]phenyl]amino]carbonyl]benzoic acid]	EC50 [2]: 36200 nM; EC50 [2, 3]: 58200 nM
		CC(C)OC(=O)c1cc(NC(=S)OCC2CCCO2)ccc1Cl (stereo not drawn) [Compound 43]	Activity class of Anti-HIV Compounds, CEM-IW [1]: MA (moderate activity (MA), that is, inhibition between approximately 20 and 50%)
		CC(C)OC(=O)c1cc(NC(=S)OCc2ccccc2)ccc1Cl [Compound 117]	Activity class of Anti-HIV Compounds, CEM-IW [1]: MA (moderate activity (MA), that is, inhibition between approximately 20 and 50%)
		CC1=C(C(=O)Nc2ccc(O)c(C(=O)OC(C)C)c2)SCCO1 [Compound 112, 1-Methylethyl 5-[[(5,6-dihydro-2-methyl-1,4-oxathiin-3-yl)-carbonyl]amino]-2-hydroxybenzoate]	Activity class of Anti-HIV Compounds, CEM-IW [1]: MA (moderate activity (MA), that is, inhibition between approximately 20 and 50%)
870 nM	750 nM and 1060 nM and 900 nM	Cc1oc(C)c(C(=S)Nc2ccc(Cl)c(C(=O)OC(C)C)c2)c1C [Compound 58, 1-Methylethyl 2-chloro-5-[(2,4,5-trimethyl 3-furanyl)thioxomethyl]amino1benzoate]	
1090 nM	1470 nM and 1750 nM and 1460 nM	CC(C)OC(=O)c1cc(NC(=S)OC2C=CCCC2)ccc1Cl (stereo not drawn) [Compound 39]	
44.3 nM		CCCOC(=O)c1cc(NC(=S)OC(C)C)ccc1Cl [Compound 154]	
2440 nM	2470 nM and 1940 nM	CCCSC(=Nc1ccc(Cl)c(C(=O)OC(C)C)c1)OC(C)C [Compound 52]	
320 nM	200 nM	C=CCOC(=S)Nc1ccc(Cl)c(C(=O)OC(C)C)c1 [Compound 37]	
476 nM	404 nM and 588 nM and 509 nM	COc1ccccc1C(=S)Nc1ccc(Cl)c(C(=O)OC(C)C)c1 [Compound 65]	
		COc1ccccc1C(=O)Nc1ccc(Cl)c(C(=O)OCC2CCCO2)c1 (stereo not drawn) [Compound 83, Tetrahydro-2-furanylmethyl 2-chloro-5-[(2-methoxybenzoyl)-amino]benzoate]	Activity class of Anti-HIV Compounds, CEM-IW [1]: MA (moderate activity (MA), that is, inhibition between approximately 20 and 50%)
95.4 nM	84.2 nM and 77.7 nM and 53.7 nM	CCC(CC)OC(=O)c1cc(NC(=S)OC(C)C)ccc1Cl [Compound 151]	
71.9 nM	42.6 nM and 53 nM	CCCCOC(=O)c1cc(NC(=S)OC(C)C)ccc1Cl [Compound 153]	
		CC(C)OC(=O)c1cc(NC(=NS(=O)(=O)c2ccccc2)c2ccccc2F)ccc1Cl [Compound 131]	Activity class of Anti-HIV Compounds, CEM-IW [1]: MA (moderate activity (MA), that is, inhibition between approximately 20 and 50%)
		COc1ccccc1NC(=O)Nc1ccc(Cl)c(C(=O)OC(C)C)c1 [Compound 99]	Activity class of Anti-HIV Compounds, CEM-IW [1]: MA (moderate activity (MA), that is, inhibition between approximately 20 and 50%)

Reference: patent US5268389A, “Thiocarboxylate ester compounds compositions containing the same” (priority 1990, dated 1993)
